The test system of one assay is isolated rat uterus. Format: cell-based. The procedure:
The compounds according to the invention were investigated with regard to uterotonic potency on isolated rat uterus, using oxytocin as standard. The antagonistic properties of the compounds were also evaluated with the aid of this preparation. Also in vivo tests using oxytocin as the agonist were carried out, the results being compared with those obtained with Antocin.
Sprague Dawley rats (body weight approximately 250 g) in natural estrous were selected by vaginal smears. An approximately 20 mm long segment was cut from the middle of a uterine horn and mounted in an organ bath containing 10 ml of a modified Locke's solution of the following composition (mM:NaCl 153, KCl 5.63, CaCl2 0.541, NaHCO3 5.95 and glucose 2.78). The solution was gassed with 5% CO2 in oxygen at 30° C. The uterine contractions were allowed to stabilize for 30 min. Contractions were recorded isometrically at a resting tension of 1.5 g using Grass force transducers (Ft. 03). The antagonistic potency of the analogs was calculated as pA2 values (Rudinger, J. & Krejci, I. Experientia 18, (1962), 585-588). pA2 is a measure of the inhibitory effect of the peptide and was defined by Schild (Schild, H. O., British Journal of Pharmacology, 2, (1947), 189-206) as the negative logarithm of the molar concentration of an antagonist which reduces the effect of a dose of agonist to that of half the dose. The agonistic effects, if any, of the antagonists were investigated by adding to the bath containing the uterus preparation a varying amount of peptide corresponding at most to a concentration of 4 μg per ml.

A further assay relates to rat uterus in vivo. The assay can be described thus: In vivo inhibition of oxytocin-induced uterus contractions in rats, compared with Antocin. The following applies: anaesthetized rats, oxytocin infusion i.v., antagonist 0.8-8.0 μg/100 g i.v.; Antocin given the value 1. As for the experimental part: Sprague Dawley rats (250 g) in natural estrous were anaesthetized with Inactin (0.5 mg/100 g body weight i.p.). Myometrial activity was recorded by means of a catheter fixed in the uterine cavity and filled with modified Locke's solution. The catheter was connected to a Statham P23d transducer, and contractions were recorded on a Grass polygraph (model 7d). Oxytocin was infused intravenously (0.05 μg/min/100 g body weight). When a regular contraction pattern had been obtained, the antagonist (0.8-8.0 μg/100 g body weight) was administered intravenously in a volume of 0.2 ml. The recorded curve was integrated over 15 min intervals immediately before and after injection of the antagonist. The inhibition of the increase in the magnitude of the uterus contractions caused by oxytocin infusion were compared with the inhibition of the Antocin which was given the value 1.

A further assay is described as follows: Antidiuretic effect (AD). Details: unit not given here.
Assay [1] can be described thus: Pressor effect (effect on the blood pressure). Details: reference not given here.
The mark [2] stands for this setting: isolated rat uterus, oxytocin as agonist, 30° C.

Read-outs that look alike come from different tables or passages of the source. Where a SMILES comes first, the peptide text is derived from it. Bridges are numbered along the chain shown (N, C = ends). [ ]: non-standard residue; d: D form. Cit = NC(=O)NCCC[C@H](N)C(=O)O; Orn = NCCC[C@H](N)C(=O)O; Mpa = O=C(O)CCS

Regarding `CCOc1ccc(C[C@H]2NC(=O)CCSSC[C@@H](C(=O)N3CCC[C@H]3C(=O)N[C@@H](CCCNC(=N)N)C(=O)NCC(N)=O)NC(=O)[C@H](CC(N)=O)NC(=O)[C@H](CCC(N)=O)NC(=O)[C@H]([C@@H](C)CC)NC2=O)cc1` [Example 2, 1-β-mercaptopropionic acid-2-(4-ethoxy)-D-phenyl alanine-8-arginine vasotocin] ([Mpa][dY](Et)IQNCPRG-NH2; disulfide 1-6), in the assay with isolated rat uterus (setting [2]), the “Uterus in vitro antagonist pA2” value worked out at 8.7.

As for `CCOc1ccc(C[C@@H]2NC(=O)CCSSC[C@@H](C(=O)N3CCC[C@H]3C(=O)N[C@@H](CCCN)C(=O)NCC(N)=O)NC(=O)[C@H](CC(N)=O)NC(=O)[C@H](C(C)C)NC(=O)[C@H]([C@@H](C)CC)NC2=O)cc1` [Example 6, 1-β-mercaptopropionic acid-2-(4-ethoxy)-phenyl alanine-4-valine-8-ornithine vasotocin] ([Mpa]Y(Et)IVNCP[Orn]G-NH2; disulfide 1-6), the “Uterus in vitro antagonist pA2” value with isolated rat uterus is listed as 7.6.

`CCOc1ccc(C[C@@H]2NC(=O)CCSSC[C@@H](C(=O)N3CCC[C@H]3C(=O)N[C@@H](CCCNC(=N)N)C(=O)NCC(N)=O)NC(=O)[C@H](CC(N)=O)NC(=O)[C@H](C(C)C)NC(=O)[C@H]([C@@H](C)CC)NC2=O)cc1` [Example 4, 1-β-mercaptopropionic acid-2-(4-ethoxy)-phenyl alanine-4-valine-8-arginine vasotocin] ([Mpa]Y(Et)IVNCPRG-NH2; disulfide 1-6): in the assay with isolated rat uterus, the “Uterus in vitro antagonist pA2” value was 8.5.

`CC[C@H](C)[C@@H]1NC(=O)[C@@H](Cc2c[nH]c3ccccc23)NC(=O)CCSSC[C@@H](C(=O)N2CCC[C@H]2C(=O)N[C@@H](CCCNC(=N)N)C(=O)NCC(N)=O)NC(=O)[C@H](CC(N)=O)NC(=O)[C@H](C(C)C)NC1=O` [Example 8, 1-β-mercaptopropionic acid-2-D-tryptophane-4-valine-8-arginine vasotocin] ([Mpa][dW]IVNCPRG-NH2; disulfide 1-6): in the assay on rat uterus in vivo, the “Uterus in vivo, compared with Antocin” value was found to be 11. Further, in the assay on isolated rat uterus, the “Uterus in vitro antagonist pA2” value came to 8.4. Besides, in “Antidiuretic effect (AD)”, the “AD (antidiuretic effect)” value stood at 0.1. In addition, the “Pressor (effect on the blood pressure)” value in assay [1] is listed as 0.12.

For `CC[C@H](C)[C@@H]1NC(=O)[C@@H](Cc2c[nH]c3ccccc23)NC(=O)CCSSC[C@@H](C(=O)N2CCC[C@H]2C(=O)N[C@@H](CCCN)C(=O)NCC(N)=O)NC(=O)[C@H](CC(N)=O)NC(=O)[C@H]([C@@H](C)O)NC1=O` [Example 15, 1-β-mercaptopropionic acid-2-D-tryptophane-4-treonine-8-ornithine vasotocin] ([Mpa][dW]ITNCP[Orn]G-NH2; disulfide 1-6), in the assay with rat uterus in vivo, the “Uterus in vivo, compared with Antocin” value is listed as 7.8. Moreover, the “Uterus in vitro antagonist pA2” value with isolated rat uterus turned out to be 8.5. In the assay “Antidiuretic effect (AD)”, the “AD (antidiuretic effect)” value turned out to be 0.1. Besides, the “Pressor (effect on the blood pressure)” value in assay [1] is recorded as 0.05.

On to `CC[C@H](C)[C@@H]1NC(=O)[C@@H](Cc2ccc(O)cc2)NC(=O)CCSSC[C@@H](C(=O)N2CCC[C@H]2C(=O)N[C@@H](CCCN)C(=O)NCC(N)=O)NC(=O)[C@H](CC(N)=O)NC(=O)[C@H](C(C)C)NC1=O` [Example 13, 1-β-mercaptopropionic acid-2-D-tyrosine-4-valine-8-ornithine vasotocin] ([Mpa][dY]IVNCP[Orn]G-NH2; disulfide 1-6), for which the “Uterus in vivo, compared with Antocin” value with rat uterus in vivo was 4.4. In addition, the “Uterus in vitro antagonist pA2” value in the assay with isolated rat uterus stood at 8.2. Besides, in “Antidiuretic effect (AD)”, the “AD (antidiuretic effect)” value is 1.2. The “Pressor (effect on the blood pressure)” value in assay [1] is 0.6.

As for `CCOc1ccc(C[C@H]2NC(=O)CCSSC[C@@H](C(=O)N3CCC[C@H]3C(=O)N[C@@H](CCCN)C(=O)NCC(N)=O)NC(=O)[C@H](CC(N)=O)NC(=O)[C@H]([C@@H](C)O)NC(=O)[C@H]([C@@H](C)CC)NC2=O)cc1` [Antocin, 1-desamino-(2-0-ethyltyrosine)-oxytocin, reference compound] ([Mpa][dY](Et)ITNCP[Orn]G-NH2; disulfide 1-6), the “Uterus in vivo, compared with Antocin” value with rat uterus in vivo worked out at 1. For the same molecule, in the assay on isolated rat uterus, the “Type of inhibition of the oxytocin effect” value is “competitive inhibition”. Moreover, the “Uterus in vitro antagonist pA2” value in the assay on isolated rat uterus (setting [2]) is reported as 7.2. Moreover, in the assay “Antidiuretic effect (AD)”, the “AD (antidiuretic effect)” value is given as < 0.2. Also, in assay [1], the “Pressor (effect on the blood pressure)” value was < 0.1.

As to `CCOc1ccc(C[C@@H]2NC(=O)CCSSC[C@@H](C(=O)N3CCC[C@H]3C(=O)N[C@@H](CCCN)C(=O)NCC(N)=O)NC(=O)[C@H](CC(N)=O)NC(=O)[C@H](CCC(N)=O)NC(=O)[C@H]([C@@H](C)CC)NC2=O)cc1` [Example 1, 1-β-mercaptopropionic acid-2-(4-ethoxy)-phenyl alanine-8-ornithine-vasotocin] ([Mpa]Y(Et)IQNCP[Orn]G-NH2; disulfide 1-6), in the assay on isolated rat uterus, the “Uterus in vitro antagonist pA2” value is reported as 8.4.

In the case of `CCOc1ccc(C[C@H]2NC(=O)CCSSC[C@@H](C(=O)N3CCC[C@H]3C(=O)N[C@@H](CCCN)C(=O)NCC(N)=O)NC(=O)[C@H](CC(N)=O)NC(=O)[C@H]([C@@H](C)O)NC(=O)[C@H]([C@@H](C)CC)NC2=O)cc1` [Example 11, 1-β-mercaptopropionic acid-2-(4-ethoxy)-D-phenyl alanine-4-treonine-8-ornithine vasotocin] ([Mpa][dY](Et)ITNCP[Orn]G-NH2; disulfide 1-6), the “Uterus in vitro antagonist pA2” value in the assay with isolated rat uterus (setting [2]) worked out at 8.3.

Take `CCOc1ccc(C[C@@H]2NC(=O)CCSSC[C@@H](C(=O)N3CCC[C@H]3C(=O)N[C@@H](CCCNC(N)=O)C(=O)NCC(N)=O)NC(=O)[C@H](CC(N)=O)NC(=O)[C@H](CCC(N)=O)NC(=O)[C@H]([C@@H](C)CC)NC2=O)cc1` [Example 3, 1-β-mercaptopropionic acid-2-(4-ethoxy)-phenyl alanine-8-citrullin vasotocin] ([Mpa]Y(Et)IQNCP[Cit]G-NH2; disulfide 1-6): the “Uterus in vitro antagonist pA2” value in the assay on isolated rat uterus is 8.5.

Regarding `CCOc1ccc(C[C@H]2NC(=O)CCSSC[C@@H](C(=O)N3CCC[C@H]3C(=O)N[C@H](CCCNC(=N)N)C(=O)NCC(N)=O)NC(=O)[C@H](CC(N)=O)NC(=O)[C@H](C(C)C)NC(=O)[C@H]([C@@H](C)CC)NC2=O)cc1` [Example 9, 1-β-mercaptopropionic acid-2-(4-ethoxy)-D-phenyl alanine-4-valine-8-D-arginine vasotocin] ([Mpa][dY](Et)IVNCP[dR]G-NH2; disulfide 1-6), in the assay with isolated rat uterus, the “Uterus in vitro antagonist pA2” value was 8.6.

“1-β-mercaptopropionic acid-2-(4-ethoxy)-D-phenyl alanine-8-arginine vasotocin [Example 7]”: in the assay on rat uterus in vivo, the “Uterus in vivo, compared with Antocin” value came to 2. Besides, the “Uterus in vitro antagonist pA2” value in the assay with isolated rat uterus (setting [2]) came to 8.4. For the same molecule, in the assay “Antidiuretic effect (AD)”, the “AD (antidiuretic effect)” value amounted to 37.9. The “Pressor (effect on the blood pressure)” value in assay [1] was 2.5.

As for `CC[C@H](C)[C@@H]1NC(=O)[C@@H](Cc2c[nH]c3ccccc23)NC(=O)CCSSC[C@@H](C(=O)N2CCC[C@H]2C(=O)N[C@H](CCCNC(=N)N)C(=O)NCC(N)=O)NC(=O)[C@H](CC(N)=O)NC(=O)[C@H]([C@@H](C)O)NC1=O` [Example 12, 1-β-mercaptopropionic acid-2-D-tryptophane-4-treonine-8-D-arginine vasotocin] ([Mpa][dW]ITNCP[dR]G-NH2; disulfide 1-6), the “Uterus in vivo, compared with Antocin” value with rat uterus in vivo is 6.3. For the same molecule, the “Uterus in vitro antagonist pA2” value in the assay on isolated rat uterus (setting [2]) turned out to be 8.0. The “AD (antidiuretic effect)” value in “Antidiuretic effect (AD)” was 0.1. Moreover, the “Pressor (effect on the blood pressure)” value in assay [1] was found to be 0.12.

In the case of `CCOc1ccc(C[C@H]2NC(=O)CCSSC[C@@H](C(=O)N3CCC[C@H]3C(=O)N[C@@H](CCCN)C(=O)NCC(N)=O)NC(=O)[C@H](CC(N)=O)NC(=O)[C@H](C(C)C)NC(=O)[C@H]([C@@H](C)CC)NC2=O)cc1` [Example 10, 1-β-mercaptopropionic acid-2-(4-ethoxy)-D-phenyl alanine-4-valine-8-ornithine vasotocin] ([Mpa][dY](Et)IVNCP[Orn]G-NH2; disulfide 1-6), the “Uterus in vitro antagonist pA2” value with isolated rat uterus amounted to 7.9.

For the molecule `CCOc1ccc(C[C@@H]2NC(=O)CCSSC[C@@H](C(=O)N3CCC[C@H]3C(=O)N[C@@H](CCCNC(=N)N)C(=O)NCC(N)=O)NC(=O)[C@H](CC(N)=O)NC(=O)[C@H]([C@@H](C)O)NC(=O)[C@H]([C@@H](C)CC)NC2=O)cc1` [Example 5, 1-β-mercaptopropionic acid-2-(4-ethoxy)-phenyl alanine-4-treonine-8-arginine vasotocin] ([Mpa]Y(Et)ITNCPRG-NH2; disulfide 1-6), the “Uterus in vitro antagonist pA2” value with isolated rat uterus (setting [2]) is recorded as 8.0.

Values taken from patent US4504469A, “Vasotocin derivatives” (priority 1982, dated 1985).
